According to ChEMBL document CHEMBL1201862, “PubChem BioAssay data set” (2004):
Activity calls are given as the source filed them.

Assays:
Caspase-3 = target: T1, Caspase-3 (Homo sapiens, UniProt P42574); assay type: functional;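 further: Dose-response selectivity test against caspase-3 for candidate inhibitors of sentrin-specific proteases (SENPs)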
T1 sequence (P42574 whole entry): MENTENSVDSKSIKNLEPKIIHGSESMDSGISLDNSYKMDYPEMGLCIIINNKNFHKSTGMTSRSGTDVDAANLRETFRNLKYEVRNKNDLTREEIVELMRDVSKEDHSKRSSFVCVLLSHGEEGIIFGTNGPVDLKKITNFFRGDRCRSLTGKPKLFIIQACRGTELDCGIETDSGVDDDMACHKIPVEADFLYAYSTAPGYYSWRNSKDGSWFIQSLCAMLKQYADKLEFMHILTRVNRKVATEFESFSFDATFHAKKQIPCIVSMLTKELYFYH

[1] = target: T2, Sentrin-specific protease 6 (Homo sapiens, UniProt Q9GZR1); assay type: functional;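 further: Luminescence-based dose-response confirmatory assay of SENP6 inhibition, following up an ultra-high-throughput screen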
T2 sequence (Q9GZR1 whole entry): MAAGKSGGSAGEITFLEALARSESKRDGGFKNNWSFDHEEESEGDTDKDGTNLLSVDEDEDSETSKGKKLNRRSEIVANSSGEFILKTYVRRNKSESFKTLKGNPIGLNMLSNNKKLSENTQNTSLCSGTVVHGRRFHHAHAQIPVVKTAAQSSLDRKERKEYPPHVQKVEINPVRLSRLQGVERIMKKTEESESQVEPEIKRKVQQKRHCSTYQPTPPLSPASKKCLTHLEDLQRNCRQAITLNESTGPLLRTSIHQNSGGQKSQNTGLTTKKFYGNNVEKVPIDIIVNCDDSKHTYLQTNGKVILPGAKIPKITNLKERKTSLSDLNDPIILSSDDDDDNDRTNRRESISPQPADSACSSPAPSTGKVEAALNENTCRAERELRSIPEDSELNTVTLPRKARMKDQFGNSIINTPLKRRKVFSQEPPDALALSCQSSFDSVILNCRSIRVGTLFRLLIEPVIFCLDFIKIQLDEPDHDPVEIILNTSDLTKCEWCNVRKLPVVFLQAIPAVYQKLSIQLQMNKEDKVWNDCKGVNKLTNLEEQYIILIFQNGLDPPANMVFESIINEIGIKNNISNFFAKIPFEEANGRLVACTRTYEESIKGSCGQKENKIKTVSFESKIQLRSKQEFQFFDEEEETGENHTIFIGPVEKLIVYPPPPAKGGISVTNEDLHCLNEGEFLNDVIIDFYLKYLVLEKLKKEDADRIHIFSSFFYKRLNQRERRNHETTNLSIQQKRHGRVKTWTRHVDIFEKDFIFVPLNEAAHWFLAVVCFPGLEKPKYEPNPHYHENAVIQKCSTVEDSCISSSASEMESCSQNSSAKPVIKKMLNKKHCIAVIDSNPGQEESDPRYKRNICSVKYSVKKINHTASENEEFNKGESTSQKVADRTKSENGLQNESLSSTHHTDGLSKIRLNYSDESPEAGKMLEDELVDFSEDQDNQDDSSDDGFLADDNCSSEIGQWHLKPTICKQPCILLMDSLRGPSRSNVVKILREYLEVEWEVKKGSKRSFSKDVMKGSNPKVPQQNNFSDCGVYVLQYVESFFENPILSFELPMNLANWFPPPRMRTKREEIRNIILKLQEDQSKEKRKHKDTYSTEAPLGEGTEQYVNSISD

[2] = target: Casein kinase II subunit alpha (Homo sapiens, UniProt P68400); assay type: functional
Chain of Casein kinase II subunit alpha (P68400 whole entry): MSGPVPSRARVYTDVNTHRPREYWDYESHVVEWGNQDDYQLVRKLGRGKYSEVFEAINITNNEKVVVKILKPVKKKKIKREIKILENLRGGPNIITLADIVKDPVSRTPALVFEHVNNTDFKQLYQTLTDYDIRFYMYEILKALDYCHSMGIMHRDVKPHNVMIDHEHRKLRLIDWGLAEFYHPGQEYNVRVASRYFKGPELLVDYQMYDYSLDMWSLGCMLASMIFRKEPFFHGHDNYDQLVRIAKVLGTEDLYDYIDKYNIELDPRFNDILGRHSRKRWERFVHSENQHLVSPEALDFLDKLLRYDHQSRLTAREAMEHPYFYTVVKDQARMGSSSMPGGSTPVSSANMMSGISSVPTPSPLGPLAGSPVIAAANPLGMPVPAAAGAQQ

[3] = target: Tyrosine-protein kinase Lyn (Homo sapiens, UniProt P07948); assay type: functional;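 further: lyn as one member of a kinase panel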
Chain of Tyrosine-protein kinase Lyn (P07948 whole entry): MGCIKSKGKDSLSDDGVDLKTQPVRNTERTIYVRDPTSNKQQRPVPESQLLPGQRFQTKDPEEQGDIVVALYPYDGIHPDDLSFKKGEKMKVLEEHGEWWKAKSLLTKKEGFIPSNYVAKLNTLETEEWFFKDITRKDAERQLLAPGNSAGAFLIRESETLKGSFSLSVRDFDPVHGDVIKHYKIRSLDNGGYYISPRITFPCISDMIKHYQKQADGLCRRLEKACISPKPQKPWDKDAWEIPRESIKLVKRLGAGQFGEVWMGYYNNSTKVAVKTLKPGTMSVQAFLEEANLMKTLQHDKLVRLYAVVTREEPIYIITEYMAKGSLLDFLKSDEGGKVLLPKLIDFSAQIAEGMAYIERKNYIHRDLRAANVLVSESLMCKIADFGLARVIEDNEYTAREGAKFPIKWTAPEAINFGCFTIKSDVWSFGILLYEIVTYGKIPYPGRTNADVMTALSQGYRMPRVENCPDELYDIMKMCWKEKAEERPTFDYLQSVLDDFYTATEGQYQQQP

[4] = target: Insulin-like growth factor 1 receptor (Homo sapiens, UniProt P08069); experiment: Navigating the Kinome. Panel member name: IGF1R; assay type: functional
Chain of Insulin-like growth factor 1 receptor (P08069 31-736 limits assumed): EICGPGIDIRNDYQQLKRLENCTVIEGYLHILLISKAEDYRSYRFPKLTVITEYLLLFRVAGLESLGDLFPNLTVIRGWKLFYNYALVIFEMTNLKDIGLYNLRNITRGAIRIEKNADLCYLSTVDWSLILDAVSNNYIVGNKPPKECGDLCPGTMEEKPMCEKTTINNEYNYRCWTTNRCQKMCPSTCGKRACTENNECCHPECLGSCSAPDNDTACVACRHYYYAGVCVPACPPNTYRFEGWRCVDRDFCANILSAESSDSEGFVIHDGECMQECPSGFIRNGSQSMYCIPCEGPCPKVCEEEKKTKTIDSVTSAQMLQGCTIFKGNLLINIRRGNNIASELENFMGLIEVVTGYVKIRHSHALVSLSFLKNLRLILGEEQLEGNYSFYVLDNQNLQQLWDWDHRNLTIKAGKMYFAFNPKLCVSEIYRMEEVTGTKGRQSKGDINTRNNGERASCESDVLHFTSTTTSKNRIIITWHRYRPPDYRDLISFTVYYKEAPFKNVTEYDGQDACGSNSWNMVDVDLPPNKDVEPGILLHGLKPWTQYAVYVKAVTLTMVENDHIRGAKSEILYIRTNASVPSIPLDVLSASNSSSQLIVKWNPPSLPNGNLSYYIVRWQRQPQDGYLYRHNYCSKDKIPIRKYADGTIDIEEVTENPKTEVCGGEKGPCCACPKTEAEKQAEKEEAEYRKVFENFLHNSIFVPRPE
Chain of Insulin-like growth factor 1 receptor (P08069 741-1367 limits assumed): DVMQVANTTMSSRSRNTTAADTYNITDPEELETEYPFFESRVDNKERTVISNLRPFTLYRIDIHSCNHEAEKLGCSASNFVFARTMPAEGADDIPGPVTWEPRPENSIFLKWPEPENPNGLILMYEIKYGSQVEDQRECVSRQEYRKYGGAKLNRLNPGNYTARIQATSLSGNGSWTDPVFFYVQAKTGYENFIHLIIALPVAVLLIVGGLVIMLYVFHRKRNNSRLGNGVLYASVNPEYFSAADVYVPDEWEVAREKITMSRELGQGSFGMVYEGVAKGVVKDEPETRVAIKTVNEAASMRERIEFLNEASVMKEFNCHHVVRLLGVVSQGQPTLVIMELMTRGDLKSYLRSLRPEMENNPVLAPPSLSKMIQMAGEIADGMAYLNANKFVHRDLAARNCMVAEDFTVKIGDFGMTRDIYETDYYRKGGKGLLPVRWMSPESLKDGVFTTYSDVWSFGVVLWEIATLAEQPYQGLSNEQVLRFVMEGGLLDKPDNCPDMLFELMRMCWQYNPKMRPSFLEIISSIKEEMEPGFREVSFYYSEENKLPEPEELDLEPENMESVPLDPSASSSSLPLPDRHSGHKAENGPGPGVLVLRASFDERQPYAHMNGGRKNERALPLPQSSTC

[5] = target: Vascular endothelial growth factor receptor 3 (Homo sapiens, UniProt P35916); assay type: functional;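 further: value from a kinome-wide profiling panel, with FLT4 as the panel member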
[6] = target: Tyrosine-protein kinase Fyn (Homo sapiens, UniProt P06241); assay type: functional
Chain of Tyrosine-protein kinase Fyn (P06241 whole entry): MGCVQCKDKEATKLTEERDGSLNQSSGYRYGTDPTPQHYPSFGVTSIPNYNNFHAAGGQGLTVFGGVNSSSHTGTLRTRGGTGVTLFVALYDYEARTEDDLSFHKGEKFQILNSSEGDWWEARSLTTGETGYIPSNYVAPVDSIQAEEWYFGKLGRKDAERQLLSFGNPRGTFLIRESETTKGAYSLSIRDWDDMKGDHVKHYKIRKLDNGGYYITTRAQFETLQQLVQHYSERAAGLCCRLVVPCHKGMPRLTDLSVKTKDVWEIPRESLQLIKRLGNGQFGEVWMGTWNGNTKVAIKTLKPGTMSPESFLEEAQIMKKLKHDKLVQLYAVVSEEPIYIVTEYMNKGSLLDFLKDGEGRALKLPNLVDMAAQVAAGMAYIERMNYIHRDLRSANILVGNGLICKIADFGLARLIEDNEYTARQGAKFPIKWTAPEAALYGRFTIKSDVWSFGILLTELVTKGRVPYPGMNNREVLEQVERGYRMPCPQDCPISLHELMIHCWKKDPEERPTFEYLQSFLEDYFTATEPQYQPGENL

[7] = target: Cyclin-dependent kinase 7 (Homo sapiens, UniProt P50613); assay type: functional;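 further: value comes from a kinome-wide kinase profiling panel in which CDK7 is one member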
Chain of Cyclin-dependent kinase 7 (P50613 whole entry): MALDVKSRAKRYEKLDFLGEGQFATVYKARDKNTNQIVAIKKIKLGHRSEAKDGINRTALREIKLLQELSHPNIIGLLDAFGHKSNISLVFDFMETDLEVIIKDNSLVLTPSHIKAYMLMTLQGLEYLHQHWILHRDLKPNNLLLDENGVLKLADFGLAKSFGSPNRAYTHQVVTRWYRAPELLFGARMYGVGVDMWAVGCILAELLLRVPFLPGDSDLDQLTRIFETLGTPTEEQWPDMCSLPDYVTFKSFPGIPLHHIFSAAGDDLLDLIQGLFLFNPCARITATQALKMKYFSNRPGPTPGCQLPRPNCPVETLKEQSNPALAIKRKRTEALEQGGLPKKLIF

[8] = target: Mitogen-activated protein kinase kinase kinase kinase 4 (Homo sapiens, UniProt O95819); assay type: functional
Chain of Mitogen-activated protein kinase kinase kinase kinase 4 (O95819 whole entry): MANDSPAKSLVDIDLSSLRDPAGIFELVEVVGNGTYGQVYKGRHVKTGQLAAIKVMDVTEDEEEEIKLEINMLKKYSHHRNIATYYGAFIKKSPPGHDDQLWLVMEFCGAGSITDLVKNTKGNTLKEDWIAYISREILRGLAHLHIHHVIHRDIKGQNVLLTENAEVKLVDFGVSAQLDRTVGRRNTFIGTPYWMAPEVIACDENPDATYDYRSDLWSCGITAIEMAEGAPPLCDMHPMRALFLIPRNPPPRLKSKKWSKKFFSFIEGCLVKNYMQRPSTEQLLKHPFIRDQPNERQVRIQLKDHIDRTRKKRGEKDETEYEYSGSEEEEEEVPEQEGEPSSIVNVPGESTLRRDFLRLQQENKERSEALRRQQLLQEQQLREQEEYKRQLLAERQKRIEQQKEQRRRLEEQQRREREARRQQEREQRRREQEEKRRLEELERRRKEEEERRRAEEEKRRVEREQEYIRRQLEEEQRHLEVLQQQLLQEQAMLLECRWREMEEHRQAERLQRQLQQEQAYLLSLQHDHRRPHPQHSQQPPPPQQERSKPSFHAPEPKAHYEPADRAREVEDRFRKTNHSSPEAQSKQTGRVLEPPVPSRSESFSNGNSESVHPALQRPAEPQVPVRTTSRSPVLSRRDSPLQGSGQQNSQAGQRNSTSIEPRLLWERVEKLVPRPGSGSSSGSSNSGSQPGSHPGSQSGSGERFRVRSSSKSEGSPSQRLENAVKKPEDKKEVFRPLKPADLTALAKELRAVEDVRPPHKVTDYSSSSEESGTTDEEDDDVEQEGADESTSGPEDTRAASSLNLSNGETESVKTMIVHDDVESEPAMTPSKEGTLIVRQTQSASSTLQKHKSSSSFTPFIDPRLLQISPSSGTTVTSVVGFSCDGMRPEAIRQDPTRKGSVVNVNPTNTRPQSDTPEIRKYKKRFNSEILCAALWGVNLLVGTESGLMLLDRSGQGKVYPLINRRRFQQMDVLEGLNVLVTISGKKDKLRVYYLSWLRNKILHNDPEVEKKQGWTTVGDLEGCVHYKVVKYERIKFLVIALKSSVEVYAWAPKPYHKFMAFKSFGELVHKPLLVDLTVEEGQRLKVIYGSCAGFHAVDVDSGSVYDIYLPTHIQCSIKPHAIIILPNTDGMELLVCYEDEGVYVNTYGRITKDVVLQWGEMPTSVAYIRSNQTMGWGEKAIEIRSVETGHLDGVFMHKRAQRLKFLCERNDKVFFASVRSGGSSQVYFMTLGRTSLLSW

[9] = target: Tyrosine-protein kinase receptor UFO (Homo sapiens, UniProt P30530); assay type: functional
[10] = target: Tyrosine-protein kinase FRK (Homo sapiens, UniProt P42685); assay type: functional;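 further: FRK tested as one member of a kinome panel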
Chain of Tyrosine-protein kinase FRK (P42685 whole entry): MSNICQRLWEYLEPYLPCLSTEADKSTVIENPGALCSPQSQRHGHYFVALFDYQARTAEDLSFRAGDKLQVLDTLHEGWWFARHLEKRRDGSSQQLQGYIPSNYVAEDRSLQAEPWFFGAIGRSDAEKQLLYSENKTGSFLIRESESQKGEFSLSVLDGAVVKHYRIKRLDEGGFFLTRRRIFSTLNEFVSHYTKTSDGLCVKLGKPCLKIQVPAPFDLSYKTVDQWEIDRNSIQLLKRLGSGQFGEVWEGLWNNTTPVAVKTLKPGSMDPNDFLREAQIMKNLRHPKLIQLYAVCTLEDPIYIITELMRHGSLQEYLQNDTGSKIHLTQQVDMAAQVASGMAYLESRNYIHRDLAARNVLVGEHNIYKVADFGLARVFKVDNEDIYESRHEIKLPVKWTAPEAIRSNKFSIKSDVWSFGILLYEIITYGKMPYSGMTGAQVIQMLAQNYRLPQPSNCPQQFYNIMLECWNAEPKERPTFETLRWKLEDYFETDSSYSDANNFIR

Protein RecA = target: T3, Protein RecA (Mycobacterium tuberculosis, UniProt P9WHJ3); experiment: Fluorescence Cell-Free Homogeneous Dose Retest to Identify Inhibitors of RecA-Intein Splicing Activity. [Related pubchem assays (depositor defined):AID2097, AID2223, AID489010, AID492950]; assay type: functional
T3 sequence (P9WHJ3 whole entry): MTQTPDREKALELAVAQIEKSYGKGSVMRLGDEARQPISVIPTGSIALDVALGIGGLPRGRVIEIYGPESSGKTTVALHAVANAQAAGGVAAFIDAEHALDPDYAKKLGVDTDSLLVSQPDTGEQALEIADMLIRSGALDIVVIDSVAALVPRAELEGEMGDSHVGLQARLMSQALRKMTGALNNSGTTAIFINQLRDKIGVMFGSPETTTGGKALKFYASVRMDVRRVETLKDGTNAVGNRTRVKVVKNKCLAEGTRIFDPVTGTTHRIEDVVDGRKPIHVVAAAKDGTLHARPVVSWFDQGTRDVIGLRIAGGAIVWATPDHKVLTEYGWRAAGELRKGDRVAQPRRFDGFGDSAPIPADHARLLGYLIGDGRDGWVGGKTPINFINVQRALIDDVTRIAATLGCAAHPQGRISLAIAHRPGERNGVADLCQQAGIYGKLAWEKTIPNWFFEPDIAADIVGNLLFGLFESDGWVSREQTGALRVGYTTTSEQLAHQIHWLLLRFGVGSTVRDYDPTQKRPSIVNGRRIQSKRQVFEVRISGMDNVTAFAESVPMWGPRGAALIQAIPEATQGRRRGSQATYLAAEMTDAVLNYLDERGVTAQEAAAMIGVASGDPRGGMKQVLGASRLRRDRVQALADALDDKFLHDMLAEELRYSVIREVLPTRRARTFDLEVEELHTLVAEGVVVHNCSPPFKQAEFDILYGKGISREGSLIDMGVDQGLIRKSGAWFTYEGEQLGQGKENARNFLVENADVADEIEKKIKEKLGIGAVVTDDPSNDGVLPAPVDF

[11] = target: Dual specificity tyrosine-phosphorylation-regulated kinase 1A (Rattus norvegicus, UniProt Q63470); assay type: biochemical, Homo sapiens
Paired box protein Pax-8 = Paired box protein Pax-8 (Homo sapiens, UniProt Q06710); experiment: PAX8 transcriptional activity inhibition in RMG-I – RMG-I cells, luciferase, cherry-pick, dose response (AID 687027); assay type: functional, cell-based;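 further: luciferase reporter driven by Pax8 target thyroperoxidase promoter measured by SteadyGlo luminescence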
[12] = target: Histone-lysine N-methyltransferase NSD2 (Homo sapiens, UniProt O96028); assay type: biochemical

`CC(C)c1ccc(-c2nnn(CCC(=O)O)n2)cc1` was tested, and the IC50 (Caspase-3) was 48600 nM (active) and the IC50 [1] was 9320 nM (active).
`COc1cc2c(cc1Nc1nc(Nc3cccc(F)c3C(N)=O)c3cc[nH]c3n1)N(C(=O)CN(C)C)CC2` was tested, and the Ki [2] was 631 nM (active), the Ki [3] was > 1580 nM (inactive) and the Ki [4] was 2 nM (active). The Ki [5] was > 6310 nM (inactive), the Ki [6] was > 6310 nM (inactive) and the Ki [7] was 2510 nM (active). For the same compound, the Ki [8] was > 5010 nM (inactive), the Ki [9] was 126 nM (active) and the Ki [10] was > 2510 nM (inactive).
For `CCn1nc(/C=C/c2ccccc2)nc2c(=O)n(C)c(=O)nc1-2`, the EC50 (Protein RecA) was 36.8 nM (active), the AC50 [11] was 281 nM (active) and the AC50 (Paired box protein Pax-8) was 4210 nM (active). For the same compound, the AC50 [12] was 87.9 nM (active).
